Patent US20240309015A1, “Methods for the Treatment of Fibrotic Disease” (SHY Therapeutics, LLC, priority 2021, published 2024)

Key:
Smad2/3 phosphorylation = assay: Phospho-Smad2/3 Inhibition Assay in PANC-1; assay type: cell-based; details: Homo sapiens; 10 μM compound, 3 h; TGF-b1 stimulated PANC-1; western blot; read-out: % inh of Smad2/3 phosphorylation in PANC-1
Procedure: Cell lines: Human tumor-derived pancreatic cancer cell line Panc-1 and mouse muscle myoblast C2C12 were purchased from American Type Culture Collection and grown in complete DMEM-High Glucose, supplemented with penicillin (100 U/mL), streptomycin (100 μg/mL), and 10% heat-inactivated FBS at 37° C. in a humidified incubator with 5% CO2.
Method: Cells were plated at 350000 cells/well density in a 12-well plate, allowed 3 hours to adhere to the plate, then starved in the appropriate medium in the presence of 0.5% FBS overnight. The small molecules to be tested were added to the cells in the final concentration of 10 μM in the presence of 0.3% DMSO for 3 hours incubation at 37° C. For IC50 value determination, serial dilutions of compounds were added to cells under the same conditions. Next, Panc-1 cells were stimulated with 10 ng/ml TGF-b1 for 1 hour, and C2C12 cells were stimulated with 10 ng/ml TGF-b1 for 20 minutes (recombinant human TGF-b1, R&D Systems). After stimulation cells were lysed with lysis buffer containing 1% Triton X-100, EDTA, and Halt™ Protease & Phosphatase Inhibitor Cocktail (Thermo Scientific). Protein concentration was assessed by BCA protein assay (Thermo Scientific). Phosphorylation level of Smad2/Smad3 was determined by western blot.
Western blot protocol: Equal amounts of protein (15-50 μg) were separated by SDS-PAGE and transferred to nitrocellulose membranes (Invitrogen by Thermo Fisher Scientific). The membrane was stained with Ponceau S Stain (Boston BioProducts) to verify uniform protein loading. Membranes were blocked with 10% milk and phosphorylation levels of Smad2/Smad3 were assessed by incubating overnight at 4° C. with the following antibodies: Phospho-Smad2 (Ser465/467) and Phosph-Smad3 (Ser423/425), both from Cell Signaling Technology. Then the membranes were incubated with HRP-conjugated secondary antibody (Jackson Immunoresearch, West Grove, PA). Bands were incubated in Amersham ECL Prime Western Blotting Detection Reagent (GE Healthcare) and visualized using the ChemiDoc MP imaging system (Bio-Rad).

KRas wild type = assay: Ras GTP Binding Domain Inhibition Assay, KRas wild type; details: at 20 μM; for KRas wild type + SOS: % inh.: with SOS; for KRas wild type: % inh.: without SOS
Procedure: (§1) A Ras Superfamily Activity Assay (as disclosed in International Application No. PCT/US2018/038613, filed Jun. 20, 2018, which is incorporated by reference in its entirety) was used as a specific assay to evaluate compounds against the following for the following Ras Superfamily proteins: KRas wild type, KRas Q61H mutant, KRas G12C mutant, KRas G12D mutant, Rac-1, and Rho-A.
(§2) Buffer-I: • 25 mM Tris-HCl, pH 7.4 • 27 mM KCl • 137 mM NaCl • 1 mM MgCl2 • 1 mM DTT
(§3) Buffer-IL: • 50 mM Tris-HCl, pH 7.0 • 1 mM MgCl2 • 1 mM DTT
(§4) The small GTPases proteins: KRas wild type. KRas Q61H mutant, KRas G12C mutant, KRas G12D mutants, Rac-1, and Rho-A were expressed as His-tagged proteins. In addition, the Guanosine nucleotide Exchange Factor (GEF) Sos protein (residues 556-1049) was expressed as a His-tagged protein. In cells, the guanine nucleotide exchange factor Sos protein promotes activation of Ras proteins by stimulating an exchange of GDP for GTP. The inclusion of Sos to the Ras GTP binding domain inhibition assay may be considered as an alternative representation of physiological cellular conditions for evaluating the inhibitory activity of some of the tested small molecules.
(§5) For the assay, all purified small GTPases proteins were diluted in Buffer-I or Buffer-II to a final concentration of 10-30 μg/mL. 200 μL of each diluted protein was added to a nickel-coated 96-well plate and incubated overnight at 4° C. Then the protein solution was discarded and 200 μL of Buffer-I or Buffer-II was added to each well in the presence of 1% DMSO. Compounds to be tested were added to the protein-coated wells at final concentration of 20 μM, and incubated for 3 hours at room temperature with and without 10-30 μg/mL of Sos added to the final hour of the incubation. When performing IC50 measurements a serial dilution of all tested concentrations was added. Then Cy3-GTP or Cy5-GTP was added to each well to a final concentration of 100 nM. The labeled GTP was incubated for 45 minutes at room temperature. Following GTP incubation, wells were washed 3× in Buffer-I or Buffer-II and 200 μL of Buffer-I or Buffer-II was added to each well. Following washes, the amount of bound labeled-GTP was measured using a SpectraMax M3 (Molecular Devices).

KRas G12D mutant = assay: Ras GTP Binding Domain Inhibition Assay, KRas G12D mutant; details: at 20 μM; for KRas G12D mutant + SOS: % inh.: with SOS; for KRas G12D mutant: % inh.: without SOS
Procedure: as §1, §2, §3, §4, §5

KRas G12C mutant = assay: Ras GTP Binding Domain Inhibition Assay, KRas G12C mutant; details: at 20 μM; for KRas G12C mutant + SOS: % inh.: with SOS; for KRas G12C mutant: % inh.: without SOS
Procedure: as §1, §2, §3, §4, §5

Rho-A = assay: Ras GTP Binding Domain Inhibition Assay, Rho-A; details: at 20 μM; without SOS
Procedure: as §1, §2, §3, §4, §5

IL-6 = assay: Mouse IL6 Quantification Assay (LPS-stimulated RAW 264.7); assay type: cell-based; design: dose or concentration left out as unconfirmed; details: RAW264.7, ELISA, read-out: IL-6: % inh.
TNFα = assay: Mouse TNF Alpha Quantification Assay (LPS-stimulated RAW 264.7); assay type: cell-based; design: dose or concentration left out as unconfirmed; details: RAW264.7, ELISA, read-out: TNFα: % inh.

Row | Compound | inhibition at 10 µM (Smad2/3 phosphorylation) [%] | KRas wild type + SOS: % inh. (KRas wild type) | KRas wild type: % inh. (KRas wild type) | KRas G12D mutant + SOS: % inh. (KRas G12D mutant; Table 7) | KRas G12D mutant + SOS: % inh. (KRas G12D mutant; Table 8) | KRas G12D mutant: % inh. (KRas G12D mutant; Table 7) | KRas G12D mutant: % inh. (KRas G12D mutant; Table 8) | KRas G12C mutant + SOS: % inh. (KRas G12C mutant) | KRas G12C mutant: % inh. (KRas G12C mutant) | Rho-A: % inh. (Rho-A) | inhibition (IL-6) [%] | inhibition (TNFα) [%]
1 | COc1cc(-c2sc3nc(-c4nccn4C)nc(N[C@@H]4CC[C@H](OC)C4)c3c2-c2ccccc2)ccn1 (racemic) [Compound 44, rac-N-((1R,3S)-3-Methoxycyclopentyl)-6-(2-methoxypyridin-4-yl)-2-(1-methyl-1H-imidazol-2-yl)-5-phenylthieno[2,3-d]pyrimidin-4-amine] | 76 to 100 | D (D = 76-100% inhibition) | C (C = 46-75% inhibition) | C (C = 46-75% inhibition) | C (C = 46-75% inhibition) | D (D = 76-100% inhibition) | D (D = 76-100% inhibition) | D (D = 76-100% inhibition) | B (B = 26-45% inhibition) | 0 (0 = 0% inhibition) | – | –
2 | COCCOCCNc1nc(-c2nccn2C)nc2sc(-c3ccn(C(C)C)n3)c(C)c12 [Compound 21, 6-(1-Isopropyl-1H-pyrazol-3-yl)-N-(2-(2-methoxyethoxy)ethyl)-5-methyl-2-(1-methyl-1H-imidazol-2-yl)thieno[2,3-d]pyrimidin-4-amine] | – | D (D = 76-100% inhibition) | D (D = 76-100% inhibition) | D (D = 76-100% inhibition) | D (D = 76-100% inhibition) | D (D = 76-100% inhibition) | D (D = 76-100% inhibition) | D (D = 76-100% inhibition) | C (C = 46-75% inhibition) | D (D = 76-100% inhibition) | 46 to 75 | 1 to 25
3 | COCC1(OC)CCN(c2nc(-c3nccn3C)nc3sc(-c4ccn(C(C)C)n4)c(C)c23)C1 (racemic) [Compound 27, rac-6-(1-Isopropyl-1H-pyrazol-3-yl)-4-(3-methoxy-3-(methoxymethyl)pyrrolidin-1-yl)-5-methyl-2-(1-methyl-1H-imidazol-2-yl)thieno[2,3-d]pyrimidine] | – | D (D = 76-100% inhibition) | D (D = 76-100% inhibition) | D (D = 76-100% inhibition) | D (D = 76-100% inhibition) | C (C = 46-75% inhibition) | C (C = 46-75% inhibition) | D (D = 76-100% inhibition) | D (D = 76-100% inhibition) | C (C = 46-75% inhibition) | 76 to 100 | 76 to 100
4 | COc1cccc(Nc2nc(-c3nccn3C)nc3sc(-c4ccn(C(C)C)n4)c(C)c23)n1 [Compound 18, 6-(1-Isopropyl-1H-pyrazol-3-yl)-N-(6-methoxypyridin-2-yl)-5-methyl-2-(1-methyl-1H-imidazol-2-yl)thieno[2,3-d]pyrimidin-4-amine] | – | C (C = 46-75% inhibition) | C (C = 46-75% inhibition) | C (C = 46-75% inhibition) | C (C = 46-75% inhibition) | D (D = 76-100% inhibition) | D (D = 76-100% inhibition) | C (C = 46-75% inhibition) | C (C = 46-75% inhibition) | D (D = 76-100% inhibition) | 26 to 45 | 0
5 | COc1cc(-c2sc3nc(-c4nccn4C)nc(N[C@@H]4CC[C@@H](OC)C4)c3c2-c2ccccc2)ccn1 (racemic) [Compound 47, N-((1R,3R)-3-Methoxycyclopentyl)-6-(2-methoxypyridin-4-yl)-2-(1-methyl-1H-imidazol-2-yl)-5-phenylthieno[2,3-d]pyrimidin-4-amine] | 76 to 100 | D (D = 76-100% inhibition) | D (D = 76-100% inhibition) | D (D = 76-100% inhibition) | D (D = 76-100% inhibition) | C (C = 46-75% inhibition) | C (C = 46-75% inhibition) | D (D = 76-100% inhibition) | C (C = 46-75% inhibition) | C (C = 46-75% inhibition) | – | –
6 | COCCO[C@H]1CC[C@@H](Nc2nc(-c3nccn3C)nc3sc(-c4ccn(C(C)C)n4)c(C)c23)C1 (racemic) [Compound 20, rac-6-(1-Isopropyl-1H-pyrazol-3-yl)-N-((1R,3S)-3-(2-methoxyethoxy)cyclopentyl)-5-methyl-2-(1-methyl-1H-imidazol-2-yl)thieno[2,3-d]pyrimidin-4-amine] | – | D (D = 76-100% inhibition) | D (D = 76-100% inhibition) | D (D = 76-100% inhibition) | D (D = 76-100% inhibition) | D (D = 76-100% inhibition) | D (D = 76-100% inhibition) | D (D = 76-100% inhibition) | D (D = 76-100% inhibition) | C (C = 46-75% inhibition) | 76 to 100 | 46 to 75
